# Columns and labels:
# Format in all cases: cell-based, human
# [1] = system: PC3 cells; test: Ribosome profiling and RNA-seq of PC3 cells (translational efficiency, mRNA abundance);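 also: mRNA is RNA-seq average read density per codon over the coding sequence, translational efficiency is ribosome footprint over RNA-seq density, scaled so the median gene equals 1.0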
# Description: Given the critical role for mTOR in prostate cancer, PC3 human prostate cancer cells, in which mTOR is constitutively hyperactivated, were used to delineate translationally controlled gene expression networks upon complete or partial mTOR inhibition. Ribosome profiling was optimized to assess quantitatively ribosome occupancy genome-wide in cancer cells.
# Cells were subsequently treated with cycloheximide (100 μg ml^−1) and detergent lysis was performed in the dish. The lysate was treated with DNase and clarified, and a sample was taken for RNA-seq analysis. Lysates were subjected to ribosome footprinting by nuclease treatment. Ribosome-protected fragments were purified, and deep sequencing libraries were generated from these fragments, as well as from poly(A) mRNA purified from non-nuclease-treated lysates.
# Ribosome footprint and RNA-seq sequencing reads were aligned against a library of transcripts from the UCSC Known Genes database GRCh37/hg19. The first 25 nucleotides of each read were aligned using Bowtie and this initial alignment was then extended to encompass the full fragment-derived portion of the sequencing read while excluding the linker sequence. Read density profiles were then constructed for the canonical transcript of each gene, using only reads with 0 or 1 total mismatches between the read sequence and the reference sequence, comprised of the transcript fragment followed by the linker sequence. Footprint reads were assigned to an A site nucleotide at position +15 to +17 of the alignment, based on the total fragment length; mRNA reads were assigned to the first nucleotide of the alignment. The average read density per codon was then computed for the coding sequence of each transcript, excluding the first 15 and last 5 codons, which can display atypical ribosome accumulation.
# Average read density was used as a measure of mRNA abundance (RNA-seq reads) and of protein synthesis (ribosome profiling reads). For most analyses, genes were filtered to require at least 256 reads in the relevant RNA-seq samples. Translational efficiency was computed as the ratio of ribosome footprint read density to RNA-seq read density, scaled to normalize the translational efficiency of the median gene to 1.0 after excluding regulated genes (log2 fold-change ±1.5 after normalizing for the all-gene median). Changes in protein synthesis, mRNA abundance and translational efficiency were similarly computed as the ratio of read densities between different samples, normalized to give the median gene a ratio of 1.0. This normalization corrects for differences in the absolute number of sequencing reads obtained for different libraries.
# [2] = system: 4EBP1, p70S6K1/2 and AKT; test: Western blot of downstream mTOR effectors in PC3 cells; settings: 2.5 μM PP242, 3 hrs
# Description: Cells were washed with PBS and lysed in 1× cell lysis buffer (Cell Signaling) for 15 min at 4° C. Lysates were sonicated briefly, clarified by centrifugation for 15 min at 14, 000 rpm, and supernatants were then collected. Protein concentration in the soluble fraction was determined by BCA protein assay (Thermo Scientific). A 4-20% Bis-Tris gradient gel (Invitrogen) was used to resolve 20 μg of protein and transferred to nitrocellulose membrane. The resulting membranes were blocked for 1 hr at room temperature with Odyssey blocking solution (LI-COR) and then incubated with primary antibodies at 4° C. overnight. The following day, the blots were washed 3 times, 10 min each in TBST, and incubated with IR-conjugated goat anti-rabbit IgG secondary antibody (IRDye 800 CW at 1:20,000; LI-COR) for 1 hour at room temperature. The blots were then washed, scanned, and specific proteins were detected using the LI-COR Odyssey infrared imager. […] Actin was used as a loading amount control.
# [3] = system: SW620 cells; test: Western blot of phosphorylation of protein translation components in SW620 cells; settings: PP242 10 μM
# Description: SW620 cells (ATCC, passage 12) were seeded at about 75% confluence 24 hrs prior to drug treatment. […] About 6×10^6 cells/10 cm plate and about 1×10^6 cells/well of a 6-well plate were harvested for ribosome profiling and Western blot analysis, respectively, following drug treatment.
# Cells were washed with PBS and lysed in 1× cell lysis buffer (Cell Signaling) for 15 min at 4° C. Lysates were sonicated briefly, clarified by centrifugation for 15 min at 14, 000 rpm, and supernatants were then collected. Protein concentration in the soluble fraction was determined by BCA protein assay (Thermo Scientific). A 4-20% Bis-Tris gradient gel (Invitrogen) was used to resolve 20 μg of protein and transferred to nitrocellulose membrane. The resulting membranes were blocked for 1 hr at room temperature with Odyssey blocking solution (LI-COR) and then incubated with primary antibodies at 4° C. overnight. The following day, the blots were washed 3 times, 10 min each in TBST, and incubated with IR-conjugated goat anti-rabbit IgG secondary antibody (IRDye 800 CW at 1:20,000; LI-COR) for 1 hour at room temperature. The blots were then washed, scanned, and specific proteins were detected using the LI-COR Odyssey infrared imager. The following antibodies from Cell Signaling were used at 1:1000 dilution: anti-phospho-eIF4E(Ser209)(#9741), anti-phospho-rpS6(Ser235/236)(#4858), anti-phospho-ERK1/2(Thr202/Tyr204)(#4370), anti-phospho-p70S6K(Thr421/Ser424)(#9204), anti-phospho-p90RSK(Thr359/Ser363)(#9344), anti-phospho-4EBP(Ser65), anti-phospho-pAKT(Ser473), anti-phospho-eIF4E(Ser209), and anti-β-actin (#4970). Actin was used as a loading amount control.
smiles,measurement,setting,value
CC(C)n1nc(-c2cc3cc(O)ccc3[nH]2)c2c(N)ncnc21 [PP242],TrlEff,[1]; gene LAMA5,−0.94
same,mRNA,[1]; gene LAMA5,0.40
same,mRNA,[1]; gene LMF2,0.62
same,mRNA,[1]; gene MTA1,0.21
same,TrlEff,[1]; gene NCLN,−0.76
same,mRNA,[1]; gene NCLN,0.29
same,mRNA,[1]; gene PABPC1,0.16
same,mRNA,[1]; gene PABPC4,0.40
same,mRNA,[1]; gene PACS1,0.45
same,mRNA,[1]; gene PFDN5,0.04
same,mRNA,[1]; gene PGLS,0.21
same,mRNA,[1]; gene PGM1,0.23
same,TrlEff,[1]; gene PNKP,−0.79
same,mRNA,[1]; gene PNKP,0.33
same,TrlEff,[1]; gene PTGES2,−0.65
same,mRNA,[1]; gene PTGES2,0.17
same,mRNA,[1]; gene RABGGTB,0.20
same,mRNA,[1]; gene RPL3,0.22
same,TrlEff,[1]; gene RPL4,−1.50
same,mRNA,[1]; gene RPL4,0.10
same,mRNA,[1]; gene RPL7,0.01
same,TrlEff,[1]; gene RPL7A,−2.30
same,mRNA,[1]; gene RPL7A,0.15
same,mRNA,[1]; gene RPL9,−0.08
same,mRNA,[1]; gene RPL10,0.25
same,mRNA,[1]; gene RPL10A,0.14
same,mRNA,[1]; gene RPL11,0.14
same,mRNA,[1]; gene RPL12,0.12
same,mRNA,[1]; gene RPL13,0.26
same,TrlEff,[1]; gene RPL13A,−3.10
same,mRNA,[1]; gene RPL13A,0.30
same,TrlEff,[1]; gene RPL15,−1.20
same,mRNA,[1]; gene RPL15,0.19
same,TrlEff,[1]; gene RPL17,−1.80
same,mRNA,[1]; gene RPL18A,0.23
same,mRNA,[1]; gene RPL19,0.11
same,mRNA,[1]; gene RPL21,−0.04
same,mRNA,[1]; gene RPL22,0.00
same,TrlEff,[1]; gene RPL22L1,−1.90
same,mRNA,[1]; gene RPL24,0.00
same,TrlEff,[1]; gene RPL26,−2.00
same,mRNA,[1]; gene RPL26,0.02
same,mRNA,[1]; gene RPL27,−0.13
same,mRNA,[1]; gene RPL27A,0.07
same,mRNA,[1]; gene RPL28,0.22
same,TrlEff,[1]; gene RPL31,−2.10
same,mRNA,[1]; gene RPL31,0.05
same,mRNA,[1]; gene RPL32,0.11
same,mRNA,[1]; gene RPL34,0.04
same,mRNA,[1]; gene RPL36A,−0.01
same,mRNA,[1]; gene RPL37A,0.01
same,mRNA,[1]; gene RPL39,−0.15
same,mRNA,[1]; gene RPL41,−0.01
same,mRNA,[1]; gene RPLP0,0.12
same,mRNA,[1]; gene RPLP1,0.12
same,TrlEff,[1]; gene RPLP2,−2.10
same,mRNA,[1]; gene RPLP2,0.14
same,mRNA,[1]; gene RPS2,0.20
same,mRNA,[1]; gene RPS3,0.24
same,mRNA,[1]; gene RPS3A,−0.06
same,mRNA,[1]; gene RPS4X,0.12
same,mRNA,[1]; gene RPS5,0.23
same,mRNA,[1]; gene RPS6,−0.02
same,TrlEff,[1]; gene RPS7,-1151
same,mRNA,[1]; gene RPS7,−0.04
same,mRNA,[1]; gene RPS9,0.34
same,TrlEff,[1]; gene RPS12,−3.00
same,mRNA,[1]; gene RPS12,0.04
same,mRNA,[1]; gene RPS13,−0.08
same,TrlEff,[1]; gene RPS14,−1.50
same,mRNA,[1]; gene RPS14,0.16
same,mRNA,[1]; gene RPS15,0.21
same,mRNA,[1]; gene RPS15A,0.07
same,mRNA,[1]; gene RPS19,0.23
same,mRNA,[1]; gene RPS20,−0.01
same,mRNA,[1]; gene RPS21,0.09
same,mRNA,[1]; gene RPS25,−0.04
same,mRNA,[1]; gene RPS27,0.07
same,mRNA,[1]; gene RPS27A,−0.04
same,mRNA,[1]; gene RPS28,0.28
same,mRNA,[1]; gene RPS29,0.11
same,mRNA,[1]; gene SLC19A1,0.10
same,TrlEff,[1]; gene SLC25A5,−1.80
same,mRNA,[1]; gene TKT,0.33
same,mRNA,[1]; gene TSC2,0.21
same,mRNA,[1]; gene UBA52,0.18
same,mRNA,[1]; gene VIM,0.67
same,TrlEff,[1]; gene YB1,−2.30
same,mRNA,[1]; gene YB1,0.24
same,"phosphorylation of S6K, S6 and 4EBP1",[2],substantially inhibited
same,phosphorylation of 4EBP,[3],some phosphorylation of 4EBP was observed

# Source: patent US20190136321A1, “USE OF TRANSLATIONAL PROFILING TO IDENTIFY TARGET MOLECULES FOR THERAPEUTIC TREATMENT” (The Regents of The University of California, priority 2013, published 2019)
